Columns and labels:
[1] = tested on: ulcerative colitis model (dextran sodium sulphate); experiment: Effect Example 1: therapeutic effect on ulcerative colitis, dextran sodium sulphate model, injected treatment, 14 days; format: in vivo, C57 mice; conditions: for Average colon length of mice / Average colon weight of mice / Unit colon weight of mice (colon weight/colon length): day 14
Method: Thirty 10-week-old male C57 mice, SPF class animal house, temperature 20-26° C., humidity 40%-70%, alternating light-dark periods (12 h/12 h).
(§1) Quarantine-qualified animals with similar weights were selected for the experiment.
Mice in the blank control group were given normal drinking water throughout the experiment. The other 5 groups of mice were given drinking water containing 2% dextran sodium sulphate (DSS) from day 1 to day 5, normal drinking water from day 6 to day 7, drinking water containing 2% dextran sodium sulphate from day 8 to day 12, and normal drinking water from day 13 to day 14. The experiment ended on day 14.
Animals in the blank control group and ulcerative colitis model group were given sterile water intraperitoneally from day 1, once a day; the other 4 groups were administered according to table 1, once a day, until the end of the experiment on day 14. Two hours after the first day of administration, the mice were started to drink water containing dextran sodium sulphate.
(§2) (1) The mice were weighed daily.
(2) Blood samples were collected from the orbital vein on day 14 and stored at −80° C.
(3) On day 14, the mice were sacrificed by cervical vertebra dislocation, the colon was removed and a small amount of fecal was taken from the colon and left as a sample. The colon length and colon weight were measured. A portion of the colon and the fecal sample was stored at −80° C.

[2] = tested on: ulcerative colitis model (dextran sodium sulphate); experiment: Effect Example 3: therapeutic effect on ulcerative colitis, dextran sodium sulphate model, oral gavage, 7 days; format: in vivo, C57 mice; conditions: 40 mg/kg oral gavage
Method: Fifty 10-week-old male C57 mice, SPF class animal house, temperature 20-26° C., humidity 40%-70%, alternating light-dark periods (12 h/12 h).
as §1
Mice in the blank control group were given normal drinking water throughout the experiment. The other 9 groups of mice were given drinking water containing 2% dextran sodium sulphate from day 1 to day 7. All groups were administered by oral gavage once a day according to table 10, until the end of the experiment.
as §2
(2) Blood samples were collected from the orbital vein on day 7 and stored at −80° C.
(3) On day 7, the mice were sacrificed by cervical vertebra dislocation, the colon was removed and a small amount of fecal was taken from the colon and left as a sample. The colon length and colon weight were measured. A portion of the colon and the fecal sample was stored at −80° C.

[3] = Day 1, high-dose treatment group 40 mg/kg intraperitoneal injection
[4] = Day 1, low-dose treatment group 10 mg/kg intraperitoneal injection
[5] = Day 1, middle-dose treatment group 20 mg/kg intraperitoneal injection
[6] = Day 2, high-dose treatment group 40 mg/kg intraperitoneal injection
[7] = Day 2, low-dose treatment group 10 mg/kg intraperitoneal injection
[8] = Day 2, middle-dose treatment group 20 mg/kg intraperitoneal injection
[9] = Day 3, high-dose treatment group 40 mg/kg intraperitoneal injection
[10] = Day 3, low-dose treatment group 10 mg/kg intraperitoneal injection
[11] = Day 3, middle-dose treatment group 20 mg/kg intraperitoneal injection
[12] = Day 4, high-dose treatment group 40 mg/kg intraperitoneal injection
[13] = Day 4, low-dose treatment group 10 mg/kg intraperitoneal injection
[14] = Day 4, middle-dose treatment group 20 mg/kg intraperitoneal injection
[15] = Day 5, high-dose treatment group 40 mg/kg intraperitoneal injection
[16] = Day 5, low-dose treatment group 10 mg/kg intraperitoneal injection
[17] = Day 5, middle-dose treatment group 20 mg/kg intraperitoneal injection
[18] = Day 6, high-dose treatment group 40 mg/kg intraperitoneal injection
[19] = Day 6, low-dose treatment group 10 mg/kg intraperitoneal injection
[20] = Day 6, middle-dose treatment group 20 mg/kg intraperitoneal injection
[21] = Day 7, high-dose treatment group 40 mg/kg intraperitoneal injection
[22] = Day 7, low-dose treatment group 10 mg/kg intraperitoneal injection
[23] = Day 7, middle-dose treatment group 20 mg/kg intraperitoneal injection
[24] = Day 8, high-dose treatment group 40 mg/kg intraperitoneal injection
[25] = Day 8, low-dose treatment group 10 mg/kg intraperitoneal injection
[26] = Day 8, middle-dose treatment group 20 mg/kg intraperitoneal injection
[27] = Day 9, high-dose treatment group 40 mg/kg intraperitoneal injection
[28] = Day 9, low-dose treatment group 10 mg/kg intraperitoneal injection
[29] = Day 9, middle-dose treatment group 20 mg/kg intraperitoneal injection
[30] = Day 10, high-dose treatment group 40 mg/kg intraperitoneal injection
[31] = Day 10, low-dose treatment group 10 mg/kg intraperitoneal injection
[32] = Day 10, middle-dose treatment group 20 mg/kg intraperitoneal injection
[33] = Day 11, high-dose treatment group 40 mg/kg intraperitoneal injection
[34] = Day 11, low-dose treatment group 10 mg/kg intraperitoneal injection
[35] = Day 11, middle-dose treatment group 20 mg/kg intraperitoneal injection
[36] = Day 12, high-dose treatment group 40 mg/kg intraperitoneal injection
[37] = Day 12, low-dose treatment group 10 mg/kg intraperitoneal injection
[38] = Day 12, middle-dose treatment group 20 mg/kg intraperitoneal injection
[39] = Day 13, high-dose treatment group 40 mg/kg intraperitoneal injection
[40] = Day 13, low-dose treatment group 10 mg/kg intraperitoneal injection
[41] = Day 13, middle-dose treatment group 20 mg/kg intraperitoneal injection
[42] = Day 14, high-dose treatment group 40 mg/kg intraperitoneal injection
[43] = Day 14, low-dose treatment group 10 mg/kg intraperitoneal injection
[44] = Day 14, middle-dose treatment group 20 mg/kg intraperitoneal injection
[45] = high-dose treatment group 40 mg/kg intraperitoneal injection
[46] = low-dose treatment group 10 mg/kg intraperitoneal injection
[47] = middle-dose treatment group 20 mg/kg intraperitoneal injection
[48] = intraperitoneal injection 10, 20, 40 mg/kg, vs ulcerative colitis model group

## CC(C)=C1OC(C)=C(O[C@@H]2O[C@H](CO)[C@@H](O)[C@H](O)[C@H]2O)C1=O [Compound I-1, 4-O-β-D-glucosyl-5-methyl-2-(1-methylethylidene)-3(2H)-furanone]
[1]; [3]
  Average weight of mice: 27.6 g
  Rate of change in weight of mice: 100.0%
[1]; [4]
  Average weight of mice: 27.9 g
  Rate of change in weight of mice: 100.0%
[1]; [5]
  Average weight of mice: 27.8 g
  Rate of change in weight of mice: 100.0%
[1]; [6]
  Average weight of mice: 27.6 g
  Rate of change in weight of mice: 99.9%
[1]; [7]
  Average weight of mice: 28.1 g
  Rate of change in weight of mice: 100.6%
[1]; [8]
  Average weight of mice: 27.8 g
  Rate of change in weight of mice: 100.1%
[1]; [9]
  Average weight of mice: 27.6 g
  Rate of change in weight of mice: 100.0%
[1]; [10]
  Average weight of mice: 28.0 g
  Rate of change in weight of mice: 100.5%
[1]; [11]
  Average weight of mice: 27.9 g
  Rate of change in weight of mice: 100.3%
[1]; [12]
  Average weight of mice: 27.6 g
  Rate of change in weight of mice: 100.0%
[1]; [13]
  Average weight of mice: 28.0 g
  Rate of change in weight of mice: 100.3%
[1]; [14]
  Average weight of mice: 27.9 g
  Rate of change in weight of mice: 100.3%
[1]; [15]
  Average weight of mice: 27.3 g
  Rate of change in weight of mice: 99.1%
[1]; [16]
  Average weight of mice: 27.2 g
  Rate of change in weight of mice: 97.6%
[1]; [17]
  Average weight of mice: 27.5 g
  Rate of change in weight of mice: 99.1%
[1]; [18]
  Average weight of mice: 27.2 g
  Rate of change in weight of mice: 98.7%
[1]; [19]
  Average weight of mice: 26.3 g
  Rate of change in weight of mice: 94.3%
[1]; [20]
  Average weight of mice: 27.2 g
  Rate of change in weight of mice: 97.8%
[1]; [21]
  Average weight of mice: 26.8 g
  Rate of change in weight of mice: 97.0%
[1]; [22]
  Average weight of mice: 25.9 g
  Rate of change in weight of mice: 93.0%
[1]; [23]
  Average weight of mice: 26.7 g
  Rate of change in weight of mice: 96.0%
[1]; [24]
  Average weight of mice: 26.3 g
  Rate of change in weight of mice: 95.3%
[1]; [25]
  Average weight of mice: 25.6 g
  Rate of change in weight of mice: 91.6%
[1]; [26]
  Average weight of mice: 26.2 g
  Rate of change in weight of mice: 94.3%
[1]; [27]
  Average weight of mice: 25.8 g
  Rate of change in weight of mice: 93.5%
[1]; [28]
  Average weight of mice: 25.3 g
  Rate of change in weight of mice: 90.8%
[1]; [29]
  Average weight of mice: 25.9 g
  Rate of change in weight of mice: 93.2%
[1]; [30]
  Average weight of mice: 25.6 g
  Rate of change in weight of mice: 92.7%
[1]; [31]
  Average weight of mice: 24.9 g
  Rate of change in weight of mice: 89.1%
[1]; [32]
  Average weight of mice: 25.6 g
  Rate of change in weight of mice: 92.2%
[1]; [33]
  Average weight of mice: 25.5 g
  Rate of change in weight of mice: 92.2%
[1]; [34]
  Average weight of mice: 24.4 g
  Rate of change in weight of mice: 87.5%
[1]; [35]
  Average weight of mice: 25.3 g
  Rate of change in weight of mice: 91.1%
[1]; [36]
  Average weight of mice: 25.4 g
  Rate of change in weight of mice: 92.0%
[1]; [37]
  Average weight of mice: 24.1 g
  Rate of change in weight of mice: 86.4%
[1]; [38]
  Average weight of mice: 25.0 g
  Rate of change in weight of mice: 90.0%
[1]; [39]
  Average weight of mice: 25.3 g
  Rate of change in weight of mice: 91.5%
[1]; [40]
  Average weight of mice: 23.8 g
  Rate of change in weight of mice: 85.3%
[1]; [41]
  Average weight of mice: 24.8 g
  Rate of change in weight of mice: 89.2%
[1]; [42]
  Average weight of mice: 25.2 g
  Rate of change in weight of mice: 91.4%
[1]; [43]
  Average weight of mice: 23.7 g
  Rate of change in weight of mice: 84.9%
[1]; [44]
  Average weight of mice: 24.7 g
  Rate of change in weight of mice: 88.8%
[1]; [45]
  Average colon length of mice: 6.52 cm
  Average colon weight of mice: 0.2129 g
  Unit colon weight of mice (colon weight/colon length): 0.0327 g/cm
[1]; [46]
  Average colon length of mice: 5.46 cm
  Average colon weight of mice: 0.1909 g
  Unit colon weight of mice (colon weight/colon length): 0.0351 g/cm
[1]; [47]
  Average colon length of mice: 6.04 cm
  Average colon weight of mice: 0.2115 g
  Unit colon weight of mice (colon weight/colon length): 0.0351 g/cm
[1]; high-dose treatment group 40 mg/kg intraperitoneal injection vs cyclosporine A 50 mg/kg
  Colon length compared with the positive control group (in words): even better than the positive control group
[1]; [48]
  Effect on the length of the colon (in words): could gradually restore the length of the colon to normal
  Effect on the reduction in the weight of mice (in words): significant ameliorating effect on the reduction in the weight of mice
  Effect on the unit colon weight (in words): could significantly improve the unit colon weight
[2]
  Effect on the colon length (in words): can gradually restore the colon length
[2]; Day 1
  Average weight of mice: 21.33 g
[2]; Day 2
  Average weight of mice: 20.97 g
[2]; Day 3
  Average weight of mice: 20.80 g
[2]; Day 4
  Average weight of mice: 20.85 g
[2]; Day 5
  Average weight of mice: 20.53 g
[2]; Day 6
  Average weight of mice: 20.13 g
[2]; Day 7
  Average weight of mice: 19.82 g
[2]; day 7
  Average colon length of mice: 6.2 cm
